Laboratory results reported in ChEMBL document CHEMBL1149086, “Antimalarial and antitumor evaluation of novel C-10 non-acetal dimers of 10beta-(2-hydroxyethyl)deoxoartemisinin” (J Med Chem, 2004).

Assays:
Plasmodium falciparum [1] = assay: In vitro antimalarial activity against Plasmodium falciparum HB3 by [3H]hypoxanthine uptake; format: functional, organism-based
Plasmodium falciparum [2] = assay: In vitro antimalarial activity against Plasmodium falciparum K1 by [3H]hypoxanthine uptake; format: functional, organism-based

Compound | IC50 (Plasmodium falciparum [1]) [nM] | IC50 (Plasmodium falciparum [2]) [nM]
C[C@H]1[C@@H](CCOCc2cccc(COCC[C@H]3O[C@@H]4O[C@]5(C)CC[C@H]6[C@H](C)CC[C@@H]([C@H]3C)[C@@]46OO5)c2)O[C@@H]2OC3(C)CC[C@H]4[C@H](C)CC[C@@H]1[C@@]24OO3 (single isomer, unassigned) | 2.1 | 2.7
C[C@H]1[C@@H](CCOC(=O)CCCC(=O)OCC[C@H]2O[C@@H]3OC4(C)CC[C@H]5[C@H](C)CC[C@@H]([C@H]2C)[C@@]35OO4)O[C@@H]2OC3(C)CC[C@H]4[C@H](C)CC[C@@H]1[C@@]24OO3 (single isomer, unassigned) | 1.1 | 2.4
C[C@H]1[C@@H](CCOC(=O)CCC(=O)OCC[C@H]2O[C@@H]3OC4(C)CC[C@H]5[C@H](C)CC[C@@H]([C@H]2C)[C@@]35OO4)O[C@@H]2OC3(C)CC[C@H]4[C@H](C)CC[C@@H]1[C@@]24OO3 (single isomer, unassigned) | 1.4 | 1.8
